# ChEMBL document CHEMBL4819048, “IDO1 and TDO inhibitory evaluation of analogues of the marine pyrroloiminoquinone alkaloids: Wakayin and Tsitsikammamines” (Bioorg Med Chem Lett, 2021)
# Assays:
# Assay type in all cases: cell-based
# [1] = target: Indoleamine 2,3-dioxygenase 1 (Homo sapiens) (UniProt P14902); assay: Inhibition of human IDO1 expressed in HEK293-EBNA cells assessed as reduction in kynurenine formation using tryptophan as substrate at 25 uM incubated for 24 hrs by HPLC analysis relative to control
# [2] = target: Indoleamine 2,3-dioxygenase 1 (Homo sapiens) (UniProt P14902); assay: Inhibition of human IDO1 expressed in HEK293-EBNA cells assessed as reduction in kynurenine formation using tryptophan as substrate at 12.5 uM incubated for 24 hrs by HPLC analysis relative to control
# [3] = target: Indoleamine 2,3-dioxygenase 1 (Homo sapiens) (UniProt P14902); assay: Inhibition of human IDO1 expressed in HEK293-EBNA cells assessed as reduction in kynurenine formation using tryptophan as substrate at 6.25 uM incubated for 24 hrs by HPLC analysis relative to control
# [4] = target: Indoleamine 2,3-dioxygenase 1 (Homo sapiens) (UniProt P14902); assay: Inhibition of human IDO1 expressed in HEK293-EBNA assessed as reduction in kynurenine formation using tryptophan as substrate at 3.12 uM incubated for 24 hrs by HPLC analysis relative to control
# [5] = target: Tryptophan 2,3-dioxygenase (Homo sapiens) (UniProt P48775); assay: Inhibition of human TDO expressed in HEK293-EBNA cells assessed as reduction in kynurenine formation using tryptophan as substrate at 25 uM incubated for 24 hrs by HPLC analysis relative to control
# [6] = target: Tryptophan 2,3-dioxygenase (Homo sapiens) (UniProt P48775); assay: Inhibition of human TDO expressed in HEK293-EBNA cells assessed as reduction in kynurenine formation using tryptophan as substrate at 12.5 uM incubated for 24 hrs by HPLC analysis relative to control
# [7] = target: Tryptophan 2,3-dioxygenase (Homo sapiens) (UniProt P48775); assay: Inhibition of human TDO expressed in HEK293-EBNA cells assessed as reduction in kynurenine formation using tryptophan as substrate at 6.25 uM incubated for 24 hrs by HPLC analysis relative to control
# [8] = target: Tryptophan 2,3-dioxygenase (Homo sapiens) (UniProt P48775); assay: Inhibition of human TDO expressed in HEK293-EBNA cells assessed as reduction in kynurenine formation using tryptophan as substrate at 3.12 uM incubated for 24 hrs by HPLC analysis relative to control
# [9] = Cytotoxicity against human HEK293-EBNA cells assessed as cell viability at 25 uM by MTS/PMS assay; settings: read-out: Activity
# [10] = Cytotoxicity against human HEK293-EBNA cells assessed as cell viability at 12.5 uM by MTS/PMS assay; settings: read-out: Activity
# [11] = Cytotoxicity against human HEK293-EBNA cells assessed as cell viability at 6.25 uM by MTS/PMS assay; settings: read-out: Activity
# [12] = Cytotoxicity against human HEK293-EBNA cells assessed as cell viability at 3.12 uM by MTS/PMS assay; settings: read-out: Activity
# Sequence of Tryptophan 2,3-dioxygenase (Homo sapiens) (P48775 whole entry, looked up): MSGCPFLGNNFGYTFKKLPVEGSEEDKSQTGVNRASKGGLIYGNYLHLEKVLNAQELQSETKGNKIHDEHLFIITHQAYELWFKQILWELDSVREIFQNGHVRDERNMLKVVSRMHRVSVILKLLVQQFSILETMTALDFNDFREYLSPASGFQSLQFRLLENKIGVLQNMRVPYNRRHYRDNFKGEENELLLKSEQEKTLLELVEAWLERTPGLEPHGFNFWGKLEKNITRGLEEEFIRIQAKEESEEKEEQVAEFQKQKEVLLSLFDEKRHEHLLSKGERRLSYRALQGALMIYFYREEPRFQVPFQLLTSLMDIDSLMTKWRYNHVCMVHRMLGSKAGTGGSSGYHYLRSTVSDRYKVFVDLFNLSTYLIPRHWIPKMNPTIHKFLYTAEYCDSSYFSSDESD
# Sequence of Indoleamine 2,3-dioxygenase 1 (Homo sapiens) (P14902 whole entry, looked up): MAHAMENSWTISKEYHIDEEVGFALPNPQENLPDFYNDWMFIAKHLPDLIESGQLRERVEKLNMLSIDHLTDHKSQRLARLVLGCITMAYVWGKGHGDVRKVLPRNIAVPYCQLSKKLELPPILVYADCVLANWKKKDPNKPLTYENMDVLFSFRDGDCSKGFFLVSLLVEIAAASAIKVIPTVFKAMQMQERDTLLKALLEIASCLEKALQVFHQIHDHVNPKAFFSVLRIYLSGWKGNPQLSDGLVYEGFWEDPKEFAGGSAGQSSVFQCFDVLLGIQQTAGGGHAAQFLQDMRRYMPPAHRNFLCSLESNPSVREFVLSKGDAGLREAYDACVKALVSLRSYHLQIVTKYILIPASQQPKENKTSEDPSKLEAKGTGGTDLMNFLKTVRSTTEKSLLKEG
inhibition [1] [%],inhibition [2] [%],inhibition [3] [%],inhibition [4] [%],inhibition [5] [%],inhibition [6] [%],inhibition [7] [%],inhibition [8] [%],SMILES,viability at 25 µM [9] [%],viability at 12.5 µM [10] [%],viability at 6.25 µM [11] [%],viability at 3.12 µM [12] [%]
6,9,9,10,7,13,14,12,Cc1ccc(S(=O)(=O)n2cc3c4c2C(=O)c2n[nH]cc2C4=NCC3)cc1,91,97,91,92
5,5,4,4,5,6,5,3,O=C1c2[nH]cc3c2C(=NCC3)c2c(-c3ccccc3)n[nH]c21,84,94,93,93
,,,,,,,,Cc1ccc(S(=O)(=O)n2ccc3c2C(=O)c2c4c(cn2S(=O)(=O)c2ccc(C)cc2)CCN=C34)cc1,67,85,88,87
-1,0,2,2,9,8,8,6,O=C1c2c[nH]nc2C2=NCCc3c[nH]c1c32,90,91,92,93
36,23,16,11,35,21,18,3,Cc1ccc(S(=O)(=O)n2cc3c4c2C(=O)c2c(cnn2C)C4=NCC3)cc1,78,77,89,93
11,15,12,10,15,23,19,15,Cc1ccc(S(=O)(=O)n2cc3c4c2C(=O)c2cn[nH]c2C4=NCC3)cc1,93,110,106,87
28,26,20,12,-8,-1,2,2,Cc1ccc(S(=O)(=O)n2ccc3c2C(=O)c2c(-c4c[nH]c5ccccc45)cn(C)c2C3=O)cc1,95,97,98,100
18,16,12,10,-10,2,5,5,Cc1ccc(S(=O)(=O)n2cc3c4c2C(=O)c2[nH]nc(-c5ccccc5)c2C4=NCC3)cc1,78,79,95,91
61,62,58,52,28,55,27,15,Cc1ccc(S(=O)(=O)n2ccc3c2C(=O)c2[nH]c(C(=O)c4ccccc4)c(C(=O)c4ccccc4)c2C3=O)cc1,111,102,125,99
39,38,28,23,67,31,12,5,Cc1ccc(S(=O)(=O)n2ccc3c2C(=O)C=C(NCCc2c[nH]c4ccccc24)C3=O)cc1,26,56,69,75
14,1,3,1,27,6,5,-7,Cc1ccc(S(=O)(=O)n2cc3c4c2C(=O)c2[nH]nc(N5C(=O)C(O)c6ccccc65)c2C4=NCC3)cc1 (centres undefined),31,84,107,104
11,13,9,2,0,0,-3,-8,Cc1ccc(S(=O)(=O)n2ccc3c2C(=O)C(NCCc2c[nH]c4ccccc24)=CC3=O)cc1,84,99,98,98
27,21,12,8,-3,0,3,2,Cc1ccc(S(=O)(=O)n2ccc3c2C(=O)c2c(c(-c4c[nH]c5ccccc45)cn2C)C3=O)cc1,88,96,96,98
-3,-4,-3,0,3,-6,-7,-7,Cc1ccc(S(=O)(=O)n2ccc3c2C(=O)c2[nH]cc4c2C3=NCC4)cc1,115,110,98,107
24,25,22,16,-9,-2,1,-1,Cc1ccc(S(=O)(=O)n2ccc3c2C(=O)c2[nH]c(C(=O)c4c[nH]c5ccccc45)c(C(=O)c4c[nH]c5ccccc45)c2C3=O)cc1,75,82,81,87
23,22,19,14,21,18,13,10,Cc1ccc(S(=O)(=O)n2cc3c4c2C(=O)c2c(-c5ccccc5)n[nH]c2C4=NCC3)cc1,96,123,126,91
